We go through two molecules from EP2681209B1, “COMPOUNDS AND METHODS FOR THE TREATMENT OF PAIN AND OTHER DISORDERS” (Aquilus Pharmaceuticals, Inc, priority 2011, dated 2012).

Data set [1] can be described thus: In-vitro microsomal stability in mouse microsomes. Format: in vitro ADME. As to conditions: 1 µM compound, mouse microsomes 0.3 mg/mL, at T = 60 minutes; for %Mean Remaining Parent without NADPH (%): control omitting NADPH. On the procedure:
Human and mouse microsomal stability was determined for select compounds following the method of Houston (Houston, JB; Biochem. Pharmacol. 47, (1994),1469).
1 µM concentration of compound and seperate human and mouse microsomes (0.3 mg/mL, BD bioscience) were used in the in-vitro assay. To ensure proper energy supply for microsomal degradation of compound, an energy regenerating system comprised of 100 mM potassium phosphate, 2mM NADPH, 3mM MgCl2, pH = 7.4. and the microsomal protein is added to each sample and the resulting suspension is then incubated in duplicate for 60 min at 37° C. in a rotary shaker. A control is run for each test agent in duplicate omitting NADPH to detect NADPH-free degradation. At T=0 and T= 60 min., an aliquot is removed from each experimental and control reaction and then mixed with an equal volume of ice-cold Stop Solution (consisting of 0.3% acetic acid in acetonitrile containing haloperidol and diclofenac as internal standards). Stopped reactions are then incubated for at least ten minutes at -20 °C, and an additional volume of water is then be added. The samples are then centrifuged to remove precipitated protein, and the supernatants are then analyzed by LC-MS/MS to determine the percentage of compound remaining. The LC-MS/MS system used was an Agilent 6410 mass spectrometer coupled with an Agilent 1200 HPLC and a CTC PAL chilled autosampler, all controlled by MassHunter software (Agilent), or an ABI2000 mass spectrometer coupled with an Agilent 1100 HPLC and a CTC PAL chilled autosampler, all controlled by Analyst software (ABI). After separation on a C18 reverse phase HPLC column (Agilent, Waters, or equivalent) using an acetonitrile-water gradient system, peaks were analyzed by mass spectrometry (MS) using ESI ionization in MRM mode.

A further data set concerns FVB male mice. In words: Spinal nerve ligation (SNL) mouse model of neuropathic pain, intraperitoneal administration, von Frey tactile allodynia test. Format: in vivo. The settings on record: for 50% paw withdrawal threshold, Mean, Day 1 / 50% paw withdrawal threshold, Mean, Day 2 / 50% paw withdrawal threshold, Mean, Day 5 / 50% paw withdrawal threshold, Mean, Day 6 / 50% paw withdrawal threshold, Mean, Day 7: IP 100 µl/mouse (approx. 3.3mg/Kg) daily injections day 1-5; for 50% paw withdrawal threshold, Mean, Day 0 Postoperative Baseline: group baseline after SNL injury, before first IP injection, von Frey. The source says:
To measure the neuropathic pain inhibiting affects of the MMP inhibitors of the present invention, the spinal nerve ligation (SNL) mouse model was run on a select number of compounds. This model which began with the work of Bennet and coworkers (Bennet, G.J. et al. Pain, 33, (1988), 87-107) and was optimized by Kim and Chung (Kim, S.H.; Chung, J.M. Pain, 50, (1992), 355-363) entails first, under magnification, the removal of one-third of the transverse process and then identifying and then dissecting free the L5 spinal nerve from the adjacent L4 spinal nerve in the mouse. The L5 spinal nerve is then tightly ligated using 6.0 silk suture. The nerve injury leads to hyperalgesia which manifests itself by enhanced responses to mechanical, heat and/or cooling stimuli. In this case, mechanical hyperalgesia is tested via Von Frey monofilaments in which filaments of varying thicknesses and bending force are individually applied to the plantar surface of the foot of the mouse. The threshold force necessary for paw withdrawal decreases dramatically after the nerve surgery. Potent pain inhibitors will reverse this affect resulting in greater force needing to be applied to cause the rodent paw to withdrawal.
Tactile Allodynia Test. Mechanical allodynia was measured using the calibrated von Frey filaments (Semmes-Weinstein monofilaments; Stoelting, Wood Dale, IL, U.S.A.). The plantar surface of the left injured paw of each animal was tested as described by Chaplan et al. (Journal of Neuroscience Methods, 53, (1994), 55-63). The Fifty percent paw withdrawal threshold response was determined by sequentially increasing or decreasing the stimulus strength according to the "up-down method" of Dixon (Annual Review Pharmacology Toxicology, 20, (1980), 441-462). For mice, […] von Frey filaments were used, with approximately equal logarithmic incremental bending forces (von Frey number: 1.65, 2.36, 2.44, 2.83, 3.22, 3.61, 3.84, 4.08, and 4.17; equivalent to 0.005, 0.02, 0.03, 0.07, 0.17, 0.41, 0.69, 1.20, and 1.48g force, respectively).
Prior to testing, each animal was placed in a suspended clear plastic chamber with a wire mesh bottom and acclimated for 15 minutes. Testing was initiated with the 0.07 g (handle marking of 2.83) applied perpendicularly to the plantar surface of the affected hind paw; each filament was applied with enough pressure to cause a buckle effect. The absence of a paw lifting/withdrawal response after 6 s prompted the use of the next higher weight filament. Paw withdrawal, indicating a positive response, prompted the use of a weaker filament. After the initial positive response (i.e., paw withdrawal), the testing continued for four additional measurements, and was used to calculate the response threshold. Four consecutive positive responses received a score of 0.001 g, and five consecutive negative responses (i.e., no paw withdrawal) received a score of 1.5 g.
Analyses for Tactile Allodynia Testing. The 50% paw withdrawal threshold was calculated (PWT; Luo and Calcutt, J. Pharmacology Experimental Therapeutics, 303(3), (2002), 1199-1205; Chaplan et al. Journal of Neuroscience Methods, 53, (1994), 55-63) using the formula: 10(Xf + κδ)/10,000 [formula] where Xf is the final von Frey filament used (log units), κ is a value that analyzes the response pattern (taken from the table published by Chaplan et al., 1994), and δ is the mean difference between stimuli (log units).
Except for the mode of administration, number of mice/group and the number of injections and amount per injection of compound given, the rest of the study was done in the same manner (in regards to the surgeries and tactile allodynia testing and analysis) as Experiment 110. 3.2 mg of each of the MMP inhibitors #5 and #10 were dissolved in 320 microliters of DMSO. To the solution was then added 32 microliters of Tween 80, followed by 2850 microliters of phosphate buffered saline (PBS). This gave a final concentration of 10% DMSO, 1% Tween and 1mg/ml compound. […]

On to `[2H]C([2H])([2H])c1ccc(C#Cc2ccc(S(=O)(=O)N[C@H](Cc3c[nH]c4ccccc34)C(=O)O)s2)cc1` [Compound 10, (R)-3-(1H-Indol-3-yl)-2-[5-(4-trideuteromethyl-phenylethynyl)-thiophene-2-sulfonylamino]-propionic acid-(D3, 98%)], for which, in data set [1], the “%Mean Remaining Parent with NADPH (%)” value is 85% and the “%Mean Remaining Parent without NADPH (%)” value stood at 91%. Moreover, in the data set with FVB male mice, the “50% paw withdrawal threshold, Mean, Day 1” value amounted to 0.170 g; the “50% paw withdrawal threshold, Mean, Day 2” value was 0.350 g; the “50% paw withdrawal threshold, Mean, Day 5” value is given as 1.470 g; the “50% paw withdrawal threshold, Mean, Day 6” value is 0.867 g. Also, in the data set on FVB male mice, the “50% paw withdrawal threshold, Mean, Day 7” value is given as 0.250 g and the “50% paw withdrawal threshold, Mean, Day 0 Postoperative Baseline” value is 0.096 g. Besides, the “reversal of mechanical alodynia” value with FVB male mice (i.p. administration, by day 5) was “complete reversal of mechanical alodynia by day 5”.
For `Cc1ccc(C#Cc2ccc(S(=O)(=O)N[C@H](Cc3c[nH]c4ccccc34)C(=O)O)s2)cc1` [Compound 5, (R)-3-(1H-Indol-3-yl)-2-(5-p-tolylethynyl-thiophene-2-sulfonylamino)-propionic acid], in data set [1], the “%Mean Remaining Parent with NADPH (%)” value is reported as 83% and the “%Mean Remaining Parent without NADPH (%)” value is 88%. Further, in the data set with FVB male mice, the “50% paw withdrawal threshold, Mean, Day 1” value is 0.078 g; the “50% paw withdrawal threshold, Mean, Day 2” value is on record as 0.117 g; the “50% paw withdrawal threshold, Mean, Day 5” value is listed as 0.238 g; the “50% paw withdrawal threshold, Mean, Day 6” value was 0.099 g. For the same molecule, in the data set with FVB male mice, the “50% paw withdrawal threshold, Mean, Day 7” value was determined as 0.128 g and the “50% paw withdrawal threshold, Mean, Day 0 Postoperative Baseline” value amounted to 0.046 g.
